In US11760756B2, “Crystalline form of a PD-1/PD-L1 inhibitor” (Incyte Corporation, priority 2020, dated 2023):

Key:
Format in all cases: physicochemical
[1] = Thermogravimetric Analysis (TGA), decomposition; details: ramp from 25° C. to 300° C. at 10° C./min
Excerpt: X-Ray Powder Diffraction (XRPD): Compound 1 crystalline forms were characterized by XRPD. The X-Ray Powder Diffraction (XRPD) was obtained from Bruker D8 Advance ECO X-ray Powder Diffractometer (XRPD) instrument. The general experimental procedures for XRPD were: (1) X-ray radiation from copper at 1.5418 Å and LYNXEYE™ detector; (2) X-ray power at 40 kV, 25 mA; and (3) the sample powder was dispersed on a zero-background sample holder. The general measurement conditions for XRPD were: Start Angle 3 degrees; Stop Angle 30 degrees; Sampling 0.015 degrees; and Scan speed 2 degree/min. Differential Scanning calorimetry (DSC): Compound 1 crystalline forms were characterized by DSC. The DSC was obtained from TA Instruments Differential Scanning calorimetry, Discovery DSC2500 with auto sampler. The DSC instrument conditions were as follows: 20-300° C. at 10° C./min; Tzero aluminum sample pan and lid; and nitrogen gas flow at 50 mL/min. Thermogravimetric Analysis (TGA): Compound 1 crystalline forms were also characterized by TGA. The TGA was obtained from TA Instruments Thermogravimetric Analyzer, Discovery TGA5500 with auto sampler. The general experimental conditions for TGA were: ramp from 25° C. to 300° C. at 10° C./min; nitrogen purge gas flow at 25 mL/min; platinum sample holder.

[2] = water dynamic vapor sorption (DVS) analysis; details: for water absorbed (DVS): 80% RH and 25° C., sample pre-dried under dried nitrogen for 1 hour (Form I at 50° C., Form IV at 25° C.)
Experimental: (§1) Form I is a non-solvate and non-hydrate crystalline form. On DSC, it first undergoes dehydration at below 125° C. followed by melting at around 148-160° C. […] On TGA, approximately 2.4% weight loss is observed at below 120° C., which is mainly due to dehydration. The compound decomposes above 160° C. after melting. Like the amorphous powder of Compound 1 drug substance, this non-solvate and non-hydrate crystalline form (Form I) is hygroscopic. […] It decomposes above 160° C. after melting. During water dynamic vapor sorption (DVS) analysis of this non-solvate and non-hydrate crystalline form (Form I), approximately 6.5% of water was absorbed at 80% RH and 25° C. for this crystalline form and the sample was pre-dried at 50° C. under dried nitrogen (N2) for 1 hour before the DVS analysis. For comparison, approximately 12% of water was absorbed at 80% RH and 25° C. for the amorphous powder.
(§2) Like the amorphous powder of Compound 1 drug substance, this meta-stable non-solvate crystalline form (Form IV) is hygroscopic. During water dynamic vapor sorption (DVS) analysis of this non-solvate crystalline form (Form IV), approximately 8.2% of water was absorbed at 80% RH and 25° C. for this crystalline form and the sample was pre-dried at 25° C. under dried nitrogen (N2) for 1 hour before the DVS analysis.

[3] = solid state form stability under water, humidity and drying conditions
Experimental: as §1, §2

SMILES	decomposition temperature (TGA) [1]	hygroscopicity [2]	water absorbed (DVS) [2]	crystalline form change in the solid state after the DVS analysis [2]	further results
Cc1c(Nc2nccc3cc(CN4CC[C@@H](O)C4)cnc23)cccc1-c1cccc(-c2nc3cc(CN4CC[C@@H](C(=O)O)C4)cc(C#N)c3o2)c1C [Form V, (R)-1-((7-cyano-2-(3′-(3-(((R)-3-hydroxypyrrolidin-1-yl)methyl)-1,7-naphthyridin-8-ylamino)-2,2′-dimethylbiphenyl-3-yl)benzo[d]oxazol-5-yl)methyl)pyrrolidine-3-carboxylic acid]	above 160 °C	–	–	–	–
Cc1c(Nc2nccc3cc(CN4CC[C@@H](O)C4)cnc23)cccc1-c1cccc(-c2nc3cc(CN4CC[C@@H](C(=O)O)C4)cc(C#N)c3o2)c1C [Form IV, (R)-1-((7-cyano-2-(3′-(3-(((R)-3-hydroxypyrrolidin-1-yl)methyl)-1,7-naphthyridin-8-ylamino)-2,2′-dimethylbiphenyl-3-yl)benzo[d]oxazol-5-yl)methyl)pyrrolidine-3-carboxylic acid]	above 140 °C	hygroscopic	approximately 8.2%	No crystalline form change was observed	crystalline form after further drying ([3]; drying on the filter at ambient temperature for 3-6 days, residual THF approximately 0.1 wt %): remained unchanged
Cc1c(Nc2nccc3cc(CN4CC[C@@H](O)C4)cnc23)cccc1-c1cccc(-c2nc3cc(CN4CC[C@@H](C(=O)O)C4)cc(C#N)c3o2)c1C [Form I, (R)-1-((7-cyano-2-(3′-(3-(((R)-3-hydroxypyrrolidin-1-yl)methyl)-1,7-naphthyridin-8-ylamino)-2,2′-dimethylbiphenyl-3-yl)benzo[d]oxazol-5-yl)methyl)pyrrolidine-3-carboxylic acid]	above 160 °C	hygroscopic	approximately 6.5%	No crystalline form change was observed	change in solid state form / hydrate formation ([3]; after stirring in water at ambient temperature for overnight): no change in solid state form; change in solid state form / hydrate formation ([3]; cycling from 5% RH to 95% RH and back to 5% RH at 25° C. and 5% RH interval): no change in solid state form; change in solid state form / hydrate formation ([3]; drying under dry nitrogen gas (N2) at 25° C. for one day): no change in solid state form; change in solid state form / hydrate formation ([3]; humidifying under 95% RH/25° C. for three days): no change in solid state form; thermodynamic stability of the crystalline form ([3]; under the current investigated process conditions): thermodynamically most stable crystalline form
Cc1c(Nc2nccc3cc(CN4CC[C@@H](O)C4)cnc23)cccc1-c1cccc(-c2nc3cc(CN4CC[C@@H](C(=O)O)C4)cc(C#N)c3o2)c1C [Form III, (R)-1-((7-cyano-2-(3′-(3-(((R)-3-hydroxypyrrolidin-1-yl)methyl)-1,7-naphthyridin-8-ylamino)-2,2′-dimethylbiphenyl-3-yl)benzo[d]oxazol-5-yl)methyl)pyrrolidine-3-carboxylic acid]	above 160 °C	–	–	–	–
Cc1c(Nc2nccc3cc(CN4CC[C@@H](O)C4)cnc23)cccc1-c1cccc(-c2nc3cc(CN4CC[C@@H](C(=O)O)C4)cc(C#N)c3o2)c1C [amorphous powder, (R)-1-((7-cyano-2-(3′-((3-(((R)-3-hydroxypyrrolidin-1-yl)methyl)-1,7-naphthyridin-8-yl)amino)-2,2′-dimethyl-[1,1′-biphenyl]-3-yl)benzo[d]oxazol-5-yl)methyl)pyrrolidine-3-carboxylic acid]	above 170 °C	hygroscopic	approximately 12%	–	–
Cc1c(Nc2nccc3cc(CN4CC[C@@H](O)C4)cnc23)cccc1-c1cccc(-c2nc3cc(CN4CC[C@@H](C(=O)O)C4)cc(C#N)c3o2)c1C [Form II, (R)-1-((7-cyano-2-(3′-(3-(((R)-3-hydroxypyrrolidin-1-yl)methyl)-1,7-naphthyridin-8-ylamino)-2,2′-dimethylbiphenyl-3-yl)benzo[d]oxazol-5-yl)methyl)pyrrolidine-3-carboxylic acid]	above 170 °C	–	–	–	–
